In US20090075976A1, “Association between an anti-atherothrombotic and an angiotensin-converting enzyme inhibitor” (LES LABORATOIRES SERVIER, priority 2007, published 2009):
Where a name gives a salt, the structure may show the parent alone.

Experiments:
[1] = system: human E-selectin promoter; assay: E-selectin promoter activity (luciferase reporter) in TNF-α-induced HUVEC cells; assay type: cell-based; conditions: for Activity in cpm %/Control MEAN ± SDM: TNF-α-induced (100 U/ml); for effect on expression of the E-selectin gene: compound alone, at the concentrations tested (up to 100 μM), TNF-α
Description: The study is carried out on human endothelial cells HUVEC (Human Umbilical Vein Endothelial Cells, Clonetics Co). The cells are cultured in an EBM2 medium (Endothelial Basal Medium, Clonetics Co) supplemented with 2% FCS (Fœtal Calf Serum) and EGM2 (Endothelial Growth Medium, Clonetics Co).
An 850 bp fragment, corresponding to the human E-selectin promoter, extending from the nucleotides at positions −800 to +50 (accession no. M64485; Tamaru et al., E-selectin gene expression is induced synergistically with the coexistence of activated classic protein kinase C and signals elicited by interleukin-1β but not tumor necrosis factor-α; 1999, J. Biol. Chem, 274, 3753-3763), was amplified by PCR and sub-cloned. In a final reaction volume of 100 μl, 5 units of native Pyrococcus furiosus (Pfu) DNA polymerase (Stratagene) were placed in the presence of 1 μg of human genomic DNA (Clontech), 200 μM of dNTP (deoxynucleotide triphosphate) (Clontech) and 200 ng of primers in a medium containing the buffer specific to the enzyme. The set of primers used is as follows: […]
The PGL3/E-selectin plasmid is transfected into HUVEC cells before the fourth passage. Transfection is carried out in plates having cells at 50% confluence, depositing Lipofectin® (Invitrogen) and 3 μg of PGL3/E-selectin plasmid in each of the wells. The Lipofectin® (6 μg/ml) is previously activated for 30 minutes in an OPTI-MEM medium (GIBCO™) and then brought into contact for 15 minutes with the plasmids previously diluted with the medium. The cells are incubated for 4 hours at 37° C. in an atmosphere containing 5% CO2 and […]. The transfection medium is withdrawn and replaced overnight by an enriched culture medium in order to stabilise the cells.
Expression of the reporter genes is induced over 4 hours in an M199 medium without serum (GIBCO™). The cells are scratched and lysed in a lysis buffer (Dual-Luciferase® kit, Promega) and then held at −20° C.
The induction phase is 4 hours for the HUVEC cells in the presence of 100 U/ml of Tumour Necrosis Factor-α (TNF-α). During that induction phase, there are added different concentrations of, on the one hand: • perindoprilate (0 to 100 µM), terutroban sodium salt (0 to 100 μM), or terutroban sodium salt (30 μM)+different concentrations of perindoprilate (10, 30 and 100 μM) (Table 1) and, on the other hand: • ramiprilate (0 to 100 μM), terutroban sodium salt (0 to 100 μM), or terutroban sodium salt (10 μM)+different concentrations of ramiprilate (30 and 100 μM) (Table 2).
The E-selectin promoter activity is determined by quantification of the luciferase activity produced (Dual-Luciferase® kit, Promega). A solution of luciferin, the substrate of the firefly luciferase, is added to each well. […] The plate is incubated for 10 minutes in the dark because the luciferase activity is light-sensitive, and then a luminometer reading is started in order to quantify the photons emitted (Wallac, Perkin Elmer), the result obtained being the average cpm (counts per minute) over a period of 5 seconds.
(§1) The activity of the E-selectin promoter is measured under control conditions and in the presence of products in the induced state.
as §1

CD rats [2] = assay: Arterial pressure in the anaesthetised rat; assay type: in vivo; conditions: recorded 1 hour after treatment, controls 131±7 mmHg
Description: After anaesthesia using pentobarbital (50 mg/kg IP), the animal is placed on a thermostatically controlled blanket. The carotid artery is exposed and a catheter is introduced in order to monitor the arterial pressure with the aid of a Gould sensor connected to AcqKnowledge software. […] Some animals are treated with terutroban (compound A) in the form of the sodium salt at a dose of 0.1 mg/kg, others with perindopril (compound B) in the form of the tert-butylamine salt at a dose of 0.3 mg/kg, and others with terutroban (compound A) in the form of the sodium salt at 0.1 mg/kg and perindopril (compound B) in the form of the tert-butylamine salt at 0.3 mg/kg.

renal fibronectin = assay: Expression of renal fibronectin in diabetic ApoE−/− mice (real-time PCR); assay type: in vivo; conditions: 6 weeks
Description: (§2) Four groups of 9 mice deficient in apolipoprotein E (ApoE^−/−, spontaneously developing atheroma plaques in their aortas) were used in this study. At the age of 8 weeks, the mice are made diabetic by 5 intraperitoneal injections of 70 mg/kg of streptozotocin over 5 days. At the ninth week, the animals are divided into four groups: an untreated control group, a group treated with terutroban (compound A) sodium salt (1 mg/kg/day in the food), a group treated with perindopril (compound B) tert-butylamine salt (0.1 mg/kg/day in the drinking water), and a group treated with the association of terutroban (compound A) sodium salt (1 mg/kg/day in the food) and perindopril (compound B) tert-butylamine salt (0.1 mg/kg/day in the drinking water). For the expression of renal fibronectin, the mice are treated for 6 weeks and then sacrificed after anaesthesia using isoflurane. For the expression of aortic VCAM-1, the mice are treated for 13 weeks and then sacrificed. The aortas and the right-side kidneys are removed, dissected and frozen in liquid nitrogen. […] Expression of aortic VCAM-1 and expression of renal fibronectin are quantified by real-time PCR and normalised with respect to 3 reference genes: β-actin, hypoxanthine-guanine phosphoribosyl transferase (HPRT) and glyceraldehyde phosphate dehydrogenase (GAPDH). […]

aortic VCAM-1 = assay: Expression of aortic VCAM-1 in diabetic ApoE−/− mice (real-time PCR); assay type: in vivo; conditions: 13 weeks
Description: as §2, with “of” for “of renal fibronectin, the mice are treated for 6 weeks and then sacrificed after anaesthesia using isoflurane. For the expression of”, “nitrogen. The tissues are cryo-ground and total RNA is extracted using the RNeasy® micro kit (Qiagen).” for “nitrogen.”

CD rats [3] = assay: Arterial thrombosis in the rat (FeCl3-induced, aorta); assay type: in vivo
Description: The thrombosis technique used is that of Tanaka and co-workers (Eur. J. Pharmacol., 2008; 401, 413-18). CD rats (350-375 g) are anaesthetised using pentobarbital 50 mg/kg IP and are placed on a thermostatically controlled blanket. After laparotomy, the aorta is exposed. […] Some animals are treated with terutroban (compound A) in the form of the sodium salt at a dose of 0.1 mg/kg, others with perindopril (compound B) in the form of the tert-butylamine salt at a dose of 1 mg/kg, and others with terutroban in the form of the sodium salt (compound A) at a dose of 0.1 mg/kg and perindopril (compound B) in the form of the tert-butylamine salt at 1 mg/kg.

VCAM-1 = conditions: diabetic atheromatous Apo E−/− mice; cited from earlier work
[4] = 0.1 mg/kg/day in the drinking water

Compound	Activity in cpm %/Control MEAN ± SDM ([1]; compound alone 30 μM)	Activity in cpm %/Control MEAN ± SDM ([1]; compound alone 100 μM)	effect on expression of the E-selectin gene [1]	arterial pressure (CD rats [2]; 0.3 mg/kg)	expression of the renal fibronectin gene versus 100% without treatment (renal fibronectin; [4])	residual expression of the aortic VCAM-1 gene versus 100% without treatment (aortic VCAM-1; [4])	weight of clot (CD rats [3]; 1 mg/kg, controls 15.6±0.7 mg)	Activity in cpm %/Control MEAN ± SDM ([1]; compound alone 10 μM)	arterial pressure (CD rats [2]; 0.1 mg/kg)	expression of the renal fibronectin gene versus 100% without treatment (renal fibronectin; 1 mg/kg/day in the food)	residual expression of the aortic VCAM-1 gene versus 100% without treatment (aortic VCAM-1; 1 mg/kg/day in the food)	endothelial expression of the adhesion molecule VCAM-1 (VCAM-1)	weight of clot (CD rats [3]; 0.1 mg/kg, controls 17.1±1.3 mg)
C[C@H](N[C@@H](CCc1ccccc1)C(=O)O)C(=O)N1[C@H](C(=O)O)C[C@@H]2CCC[C@@H]21 [Compound C, active metabolite, ramiprilate]	111.1 ± 17.2%	114.6 ± 38.9%	no effect	–	–	–	–	–	–	–	–	–	–
CCC[C@H](N[C@@H](C)C(=O)N1[C@H](C(=O)O)C[C@@H]2CCCC[C@@H]21)C(=O)OCC [perindopril]	–	–	–	120±9 mmHg	86±9.9%	76±21%	15.2 ± 1.1 mg	–	–	–	–	–	–
CCC[C@H](N[C@@H](C)C(=O)N1[C@H](C(=O)O)C[C@@H]2CCCC[C@@H]21)C(=O)O [Compound B, active metabolite, perindoprilate]	100.3 ± 9.2%	82.8 ± 11.5%	no effect	–	–	–	–	99.5 ± 7.8%	–	–	–	–	–
Cc1ccc2c(c1CCC(=O)O)CC[C@@H](NS(=O)(=O)c1ccc(Cl)cc1)C2 [Compound A, sodium salt, 3-[(6R)-6-[[(4-chlorophenyl)sulphonyl]amino]-2-methyl-5,6,7,8-tetrahydronaphth-1-yl]propanoic acid]	99.5 ± 9.1%	88.8 ± 8.9%	no effect	–	–	–	–	105.8 ± 7.9%	126±7 mmHg	69±16%	88±22%	significantly reduced	16.8 ± 1.3 mg
